The subject of data set [1] is Cx43 protein. As to conditions: within two hours; Becker 1999, McGonnell 2001, Qiu 2003; cited from earlier work.
Data set [2] deals with skin wounds. Kind of data set: Full-thickness excisional skin wound healing (wound area, re-epithelialization). It counts as in vivo, mice. On the procedure:
Male, 8 week old, ICR mice were used in the following experiments. All the mice were kept under specific pathogen-free conditions in an environmentally controlled clean room at University College London and all the experiments were carried out under UK Home Office regulations. Mice were anaesthetized by halothane inhalation. Four full-thickness excisional wounds of 6 mm diameter were made on the shaved back on either side of the dorsal midline with a 6 mm biopsy punch (Kai Industries). To each pair of wounds a single topical application of 50 μl of 1 μM Cx43 as ODN (SEQ. ID No. 2) (Sigma-Genosys) in 30% Pluronic F-127 gel (Sigma-Aldrich), chilled on ice, was made to one wound, and an identical application of 1 μM sense control sODNs was made to the other. […] Targeting connexin 43 expression accelerates the rate of wound repair. Curr Biol 13, 1697-703). Each wound region was digitally photographed at the indicated time intervals, and the areas of the wounds were calculated. All wound areas were expressed as percentages of the initial wound areas. In some series of experiments, wounds and their surrounding area, including the scab and epithelial margins, were harvested with an 8 mm biopsy punch (Kai Industries) at the indicated time intervals after mice were killed with an overdose of chloroform. A minimum of eight mice were used for each time point examined.

Data set [3] concerns IGF-7. Description: Growth factor/cytokine antibody array of chimera: IGF-7. As to conditions: after two weeks in culture. It counts as cell-based, human. The procedure: (§1) Cell denuded pig stroma chimeras were cultured for two weeks and then assessed using a growth factor/cytokine antibody array (measures protein levels of 120 different growth factors/cytokines.
(§2) After two weeks in culture the chimeras were cut in half: one half for histological analysis, and the other for growth factor and cytokine array analysis. For growth factor and cytokine analysis the central stromal region (with fully recovered human cell epithelium) and partially repopulated stroma (human keratocytes) was removed and homogenised separately from the human limbal rim which contains stem cell populations. The homogenates were run on a growth factor/cytokine array (FIG. 15) and analysis of growth factor levels performed using densitometry analysis of the array membranes.

The subject of data set [4] is IGFBP-2. Kind of data set: Growth factor/cytokine antibody array of chimera: IGFBP-2. The data set is classed as cell-based, human. As to conditions: after two weeks in culture. The procedure: as §1, §2
The subject of data set [5] is myofibroblasts. Kind of data set: Anti-α smooth muscle actin staining of myofibroblasts in granulation tissue. It counts as in vivo, mice. On the procedure: (§3) Male, 8 week old, ICR mice were used in the following experiments. All the mice were kept under specific pathogen-free conditions in an environmentally controlled clean room at University College London and all the experiments were carried out under UK Home Office regulations. Mice were anaesthetized by halothane inhalation. Four full-thickness excisional wounds of 6 mm diameter were made on the shaved back on either side of the dorsal midline with a 6 mm biopsy punch (Kai Industries). To each pair of wounds a single topical application of 50 μl of 1 μM Cx43 as ODN (SEQ. ID No. 2) (Sigma-Genosys) in 30% Pluronic F-127 gel (Sigma-Aldrich), chilled on ice, was made to one wound, and an identical application of 1 μM sense control sODNs was made to the other. […] R. and Becker, D. L. (2003). Targeting connexin 43 expression accelerates the rate of wound repair. Curr Biol 13, 1697-703). Each wound region was digitally photographed at the indicated time intervals, and the areas of the wounds were calculated. All wound areas were expressed as percentages of the initial wound areas. In some series of experiments, wounds and their surrounding area, including the scab and epithelial margins, were harvested with an 8 mm biopsy punch (Kai Industries) at the indicated time intervals after mice were killed with an overdose of chloroform. A minimum of eight mice were used for each time point examined.
Immunostaining for connexin 43, blood vessels or a smooth muscle actin was carried out on cryostat sections of wounds. Sections were fixed in acetone at 4° C. for 5 minutes prior to blocking for 45 minutes. Incubation in primary antibody was for one hour at the following dilutions: rabbit anti-Cx43 (Sigma) 1:3,000; isoLectin B_FITC 1:2000; von Willebrand Factor (rabbit Dako) 1:400; anti-α smooth muscle actin (Sigma) 1:400 at room temperature. […]
A treatment-blinded observer counted MPO-positive neutrophils and F4/80-positive macrophages in the wound bed (defined as the area surrounded by unwounded skin, fascia, regenerated epidermis, and eschar) in 3 random high-power fields of 0.332 mm^2. BrdU-positive cells in the wound margin and the nascent epidermis regions of each immunohistochemically stained section were counted as described previously and expressed per […] of epidermis (Mori, R., Kondo, T., Nishie, T., Ohshima, T. and Asano, M. (2004). Impairment of skin wound healing in beta-1,4-galactosyltransferase-deficient mice with reduced leukocyte recruitment. Am J Pathol 164, 1303-14). Number of fibroblast like cells (phalloidin-positive cells with spindle-shape body) at the wound margin were counted in high-power fields also (each field was 0.332 mm^2). […] Images were made binary at a standard threshold and positive pixels were counted using Image J (NIH Image).

For data set [6], the system named is skin wounds. The settings on record: Qiu 2003; Coutinho 2005; cited from earlier work.
Data set [7] concerns collagen type 1α1. Description: Real-Time PCR of Col1α1 at wound sites. Details: species or system mice. As to conditions: mouse, in vivo. On the procedure:
as §3, with “In some series of experiments, wounds and their surrounding area, including the scab and epithelial margins, were harvested with an 8 mm biopsy punch (Kai Industries) at the indicated time intervals after mice were killed with an overdose of chloroform. A minimum of eight mice were used for each time point examined.” left out
Gene specific primers and probe were obtained as TaqMan® Gene Expression Assays (Applied Biosystems) for Cx43, Ccl2, Co1α1, TNFα and TGFβ1. […] Each sample was analyzed in duplicate. […]
Background: Quantitative PCR measures a nucleic acid by following its amplification.

For the sequence “GTAATTGCGGCAGGAGGAATTGTTTCTGTC (antisense GTAATTGCGGCAGGAGGAATTGTTTCTGTC; in Pluronic F-127 gel, further chemistry not given here) [Cx43 asODN]”, in data set [1], the “knockdown of Cx43 protein at the site of delivery” value is reported as “significant knockdown”. Besides, the “macroscopic wound appearance and closure versus control wounds” value in data set [2] (days 1 and 2) is “significantly smaller, drier, less inflamed and closed faster”. Further, in data set [2] (excisional and incisional wounds), the “re-epithelialisation versus control ODN treated wounds” value is “re-epithelialise more rapidly”. The “level of IGF-7 in chimeric stroma compared with untreated controls” value in data set [3] is on record as “very high levels”. Further, the “level of IGFBP-2 in limbal rim and stroma compared with untreated controls” value in data set [4] is “higher levels”. Also, the “SMA staining at the edges of the granulation tissue” value in data set [5] (10 days after wounding, P=0.000002 versus control) is on record as “most of the staining for SMA had gone”. Besides, the SMA staining entry in data set [5] (day 5, no staining in control wounds) is “could be detected at the edges of the granulation tissue”. Also, in data set [5] (day 7, P=0.004 versus control), the “SMA staining at the edges of the granulation tissue, quantified” value is “significantly higher”. In addition, the “advance over controls in maturation of granulation tissue” value in data set [5] (mouse, in vivo) fell in the range of 2 to 3 days. Also, the “healing of skin wound and burn injury sites versus control sODN” value in data set [6] was “significantly accelerated healing”. The “collagen type 1α1 in treated wounds” value in data set [7] was “increased”.

(Values after patent publication US9457044B2, “Methods and compositions for wound healing” (CoDa Therapeutics, Inc., priority 2006, dated 2016).)
